Assays:
[1] = Total clearance in bile-duct cannulated Sprague-Dawley rat at 1 mg/kg, iv in presence of 20 mg/kg rifampicin (reference value: 34.3 +/- 3.9 ml/h/kg); format: ADME, organism-based; details: in vivo
[2] = Total clearance in Sprague-Dawley rat at 1 mg/kg, iv; format: ADME, organism-based; set-up: dose 1 mg/kg, route intravenous; details: in vivo
Hepatocyte [3] = assay: Drug uptake in mouse hepatocytes at pH 6.5; format: ADME, cell-based
Hepatocyte [4] = assay: Drug uptake in mouse hepatocytes at pH 5.5; format: ADME, cell-based
Hepatocyte [5] = assay: Drug uptake in mouse hepatocytes in absence of Na+; format: ADME, cell-based
Hepatocyte [6] = assay: Drug uptake in mouse hepatocytes in presence of carbonyl cyanide-para-trifluoromethoxyphenylhydrazone ATP depletor; format: ADME, cell-based
Hepatocyte [7] = assay: Drug uptake in mouse hepatocytes in presence of rifampicin OATP inhibitor; format: ADME, cell-based
Hepatocyte [8] = assay: Drug uptake in mouse hepatocytes in presence of tetraethylammonium; format: ADME, cell-based
Hepatocyte [9] = assay: Drug uptake in mouse hepatocytes in presence of TPeA; format: ADME, cell-based
Hepatocyte [10] = assay: Drug uptake in mouse hepatocytes in presence of quinidine; format: ADME, cell-based
Hepatocyte [11] = assay: Drug uptake in mouse hepatocytes in presence of verapamil; format: ADME, cell-based
Hepatocyte [12] = assay: Drug uptake in mouse hepatocytes in presence of GABA; format: ADME, cell-based
Hepatocyte [13] = assay: Drug uptake in mouse hepatocytes in presence of phenylalanine; format: ADME, cell-based
Liver [14] = assay: Drug uptake in mouse liver at 1 mg/kg, iv in presence of rifampicin OATP inhibitor; format: ADME, organism-based; set-up: dose 1 mg/kg, route intravenous; details: in vivo
[15] = Total clearance in wild-type mouse at 1 mg/kg, iv; format: ADME, organism-based; set-up: dose 1 mg/kg, route intravenous; details: in vivo
[16] = target: T1, Solute carrier organic anion transporter family member 2B1 (Homo sapiens, UniProt O94956); assay: Inhibition of OATP2B1-mediated [3H]estrone-3-sulfate uptake in human OATP2B1 expressing HEK293/PDZK1 cells by scintillation counting; format: ADME, cell-based
T1 sequence (O94956 whole entry): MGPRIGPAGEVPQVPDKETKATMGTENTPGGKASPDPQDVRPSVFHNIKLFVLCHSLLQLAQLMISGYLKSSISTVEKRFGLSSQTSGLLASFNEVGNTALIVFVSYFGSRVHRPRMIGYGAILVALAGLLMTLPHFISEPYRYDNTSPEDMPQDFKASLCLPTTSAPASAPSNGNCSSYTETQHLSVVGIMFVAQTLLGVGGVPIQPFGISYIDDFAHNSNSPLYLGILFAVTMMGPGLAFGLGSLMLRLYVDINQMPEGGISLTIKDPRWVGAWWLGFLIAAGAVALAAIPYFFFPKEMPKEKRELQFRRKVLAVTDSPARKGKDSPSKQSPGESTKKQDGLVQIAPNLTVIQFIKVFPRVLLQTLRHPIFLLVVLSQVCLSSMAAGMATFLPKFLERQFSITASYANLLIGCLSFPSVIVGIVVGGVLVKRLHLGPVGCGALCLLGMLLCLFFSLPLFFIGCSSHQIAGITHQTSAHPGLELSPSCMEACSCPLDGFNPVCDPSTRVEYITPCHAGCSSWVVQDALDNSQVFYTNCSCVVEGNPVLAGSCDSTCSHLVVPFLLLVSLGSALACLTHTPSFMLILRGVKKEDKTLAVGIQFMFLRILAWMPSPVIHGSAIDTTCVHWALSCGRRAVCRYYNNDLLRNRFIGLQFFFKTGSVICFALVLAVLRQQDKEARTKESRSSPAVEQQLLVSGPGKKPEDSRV

[17] = target: T2, Solute carrier organic anion transporter family member 1B3 (Homo sapiens, UniProt Q9NPD5); assay: Inhibition of OATP1B3-mediated [3H]estradiol 17beta-glucuronide uptake in human OATP1B3 expressing HEK293/PDZK1 cells by scintillation counting; format: ADME, cell-based
T2 sequence (Q9NPD5 whole entry): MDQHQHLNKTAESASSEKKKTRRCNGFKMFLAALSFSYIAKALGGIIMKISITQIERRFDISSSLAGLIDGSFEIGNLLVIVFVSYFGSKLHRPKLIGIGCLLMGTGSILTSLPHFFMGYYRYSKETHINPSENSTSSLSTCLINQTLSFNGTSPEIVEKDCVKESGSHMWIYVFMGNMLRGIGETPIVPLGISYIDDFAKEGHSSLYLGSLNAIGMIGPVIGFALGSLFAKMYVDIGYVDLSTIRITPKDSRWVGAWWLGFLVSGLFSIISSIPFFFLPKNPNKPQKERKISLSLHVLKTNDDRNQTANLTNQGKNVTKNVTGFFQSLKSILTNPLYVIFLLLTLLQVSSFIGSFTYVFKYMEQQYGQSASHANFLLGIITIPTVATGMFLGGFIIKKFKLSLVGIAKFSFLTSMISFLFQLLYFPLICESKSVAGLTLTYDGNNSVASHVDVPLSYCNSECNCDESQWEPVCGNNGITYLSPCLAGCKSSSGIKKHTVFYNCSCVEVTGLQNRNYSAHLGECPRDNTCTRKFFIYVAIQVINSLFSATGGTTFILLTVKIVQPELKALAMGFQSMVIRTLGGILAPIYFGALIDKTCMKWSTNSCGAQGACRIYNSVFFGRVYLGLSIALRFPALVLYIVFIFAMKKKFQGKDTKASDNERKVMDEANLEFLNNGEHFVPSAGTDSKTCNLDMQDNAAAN

[18] = target: T3, Organic cation/carnitine transporter 2 (Homo sapiens, UniProt O76082); assay: Inhibition of OCTN2-mediated [14C]carnitine uptake in human OCTN2 expressing HEK293/PDZK1 cells by scintillation counting; format: cell-based
T3 sequence (O76082 whole entry): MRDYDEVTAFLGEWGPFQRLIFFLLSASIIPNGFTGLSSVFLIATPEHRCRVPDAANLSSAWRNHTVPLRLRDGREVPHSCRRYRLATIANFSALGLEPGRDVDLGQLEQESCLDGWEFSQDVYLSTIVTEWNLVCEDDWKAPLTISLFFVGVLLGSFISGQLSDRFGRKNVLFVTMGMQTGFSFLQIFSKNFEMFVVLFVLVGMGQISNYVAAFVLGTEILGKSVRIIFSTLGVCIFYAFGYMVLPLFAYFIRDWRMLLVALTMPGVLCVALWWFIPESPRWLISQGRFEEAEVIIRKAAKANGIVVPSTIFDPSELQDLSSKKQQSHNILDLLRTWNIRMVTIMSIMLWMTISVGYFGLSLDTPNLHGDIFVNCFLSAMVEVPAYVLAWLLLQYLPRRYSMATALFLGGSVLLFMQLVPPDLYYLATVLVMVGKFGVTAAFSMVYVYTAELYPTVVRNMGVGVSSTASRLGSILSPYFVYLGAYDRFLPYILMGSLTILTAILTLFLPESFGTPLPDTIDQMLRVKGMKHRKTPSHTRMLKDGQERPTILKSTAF

[19] = Drug metabolism in human urine assessed as oxidized metabolites at 50 mg, po single dose; format: ADME, organism-based; details: in vivo
[20] = Drug excretion in Sprague-Dawley rat bile assessed as unchanged compound level at 1 mg/kg, iv for 72 hrs; format: ADME, organism-based; set-up: dose 1 mg/kg, route intravenous; details: read-out: Drug excretion
Liver [21] = assay: Drug uptake in mouse liver at 1 mg/kg, iv in presence of 30 umol/kg TPeA; format: ADME, organism-based; set-up: dose 1 mg/kg, route intravenous; details: in vivo
Liver [22] = assay: Tissue uptake clearance in bile duct cannulated Sprague-Dawley rat liver at 1 mg/kg, iv by integration plot analysis; format: ADME, organism-based; set-up: dose 1 mg/kg, route intravenous; details: in vivo
Liver [23] = details: rat, in vivo, iv, 1 mg/kg

CC1=NN(c2ccc(C)c(C)c2)C(=O)/C1=N\Nc1cccc(-c2cccc(C(=O)O)c2)c1O [ELTROMBOPAG]
clearance [1]: 0.335 mL/min/kg
clearance [2]: 0.55 mL/min/kg
Drug uptake (Hepatocyte [3]): Active
Drug uptake (Hepatocyte [4]): Active
Drug uptake (Hepatocyte [5]): Active
Drug uptake (Hepatocyte [6]): Not Active
Drug uptake (Hepatocyte [7]): Not Active
Drug uptake (Hepatocyte [8]): Not Active
Drug uptake (Hepatocyte [9]): Not Active
Drug uptake (Hepatocyte [10]): Not Active
Drug uptake (Hepatocyte [11]): Not Active
Drug uptake (Hepatocyte [12]): Not Active
Drug uptake (Hepatocyte [13]): Not Active
Drug uptake (Liver [14]): Not Active
clearance [15]: 1.29 mL/min/kg
Ki [16]: 8.48 µM
inhibition (INH) ([16]; human, hek293/pdzk1): Active
Ki [17]: 25.6 µM
inhibition (INH) ([17]; human, hek293/pdzk1): Active
inhibition (INH) [18]: Not Active
Drug excretion [19]: 31%
dose excreted at 72 h [20]: 40%
Drug uptake (Liver [21]): Not Active
CLup (Liver [22]): 0.747 mL/min/kg
CLup (Liver [23]): 0.38 mL/min/kg

— ChEMBL document CHEMBL3526078, “Pharmacokinetics and hepatic uptake of eltrombopag, a novel platelet-increasing agent” (Drug Metab Dispos, 2011)
